Our source for the IC50 values is patent US7683078B2, “Arylsulfonamide derivatives as C-Jun-N-Terminal Kinases (JNK's) inhibitors” (Laboratoires Serono S.A., priority 2001, dated 2010).

The target of the assay is JNK3 (Homo sapiens, UniProt P53779). In words: JNK3 in vitro assay (33P incorporation into c-jun, SPA). In kind it is biochemical. The settings on record: recombinant pre-activated GST-JNK3, biotinylated GST-c-Jun, 2 μM 33γ-ATP, 120 min R.T.; read-out: inhibition (IC50) with regard to JNK3. On the procedure: The phosphorylation of c-jun by JNK2 or JNK3 can be followed by monitoring the incorporation of ^33P into c-jun following the protocol below. The inhibitory activity of the compounds according to formula I, towards c-jun phosphorylation through JNK, is determined by calculating phosphorylation activity in the presence or absence of compounds according to formula I.
Chain of JNK3 (P53779 whole entry, species assumed): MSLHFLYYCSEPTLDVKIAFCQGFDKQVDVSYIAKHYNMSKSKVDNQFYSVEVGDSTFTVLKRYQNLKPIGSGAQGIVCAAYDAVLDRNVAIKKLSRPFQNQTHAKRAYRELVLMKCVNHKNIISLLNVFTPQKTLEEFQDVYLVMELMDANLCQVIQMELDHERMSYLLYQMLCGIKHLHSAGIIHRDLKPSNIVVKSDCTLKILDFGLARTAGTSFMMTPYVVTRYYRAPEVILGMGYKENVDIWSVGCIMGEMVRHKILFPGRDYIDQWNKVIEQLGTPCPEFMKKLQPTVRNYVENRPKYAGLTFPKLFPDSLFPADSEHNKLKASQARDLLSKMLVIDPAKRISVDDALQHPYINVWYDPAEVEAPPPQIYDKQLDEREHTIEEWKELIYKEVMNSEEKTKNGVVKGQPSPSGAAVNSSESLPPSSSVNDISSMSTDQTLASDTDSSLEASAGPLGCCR
JNK3 and/or -2 assays are performed in 96 well MTT plates: incubation of 0.5 μg of recombinant, pre-activated GST-JNK3 or GST-JNK2 with 1 μg of recombinant, biotinylated GST-c-Jun and 2 μM ^33γ-ATP (2 nCi/μl), in the presence or absence of compounds according to formula I and in a reaction volume of 50 μl containing 50 mM Tris-HCl, pH 8.0; 10 mM MgCl2; 1 mM Dithiothreitol, and 100 μM Na3VO4. The incubation is performed for 120 min. at R.T and stopped upon addition of 200 μl of a solution containing 250 μg of Streptavidine-coated SPA beads (Amersham, Inc.)*, 5 mM EDTA, 0.1% Triton-X-100 and 50 μM ATP, in phosphate saline buffer. After incubation for 60 minutes at RT, beads are sedimented by centrifugation at 1500×g for 5 minutes, resuspended in 200 μl of PBS containing 5 mM EDTA, 0.1% Triton X-100 and 50 μM ATP and the radioactivity measured in a scintillation β counter, following sedimentation of the beads as described above. […]

By IC50 is commonly meant the midpoint of a concentration-inhibition curve. Take `CCCCCCNCCCN(C)S(=O)(=O)c1ccc(CNC(=O)c2ccc(Cl)cc2)s1` [Compound 14, 4-Chloro-N-{5-[(3-hexylamino-propyl)-methyl-sulfamoyl]-thiophen-2-ylmethyl}-benzamide]: the 50% inhibitory concentration (IC50) was found to be 184 nM.

For `CN(CCCNCc1ccc(C(F)(F)F)cc1)S(=O)(=O)c1ccc(CNC(=O)c2ccc(Cl)cc2)s1` [Compound 13, 4-Chloro-N-(5-{methyl-[3-(4-trifluoromethyl-benzylamino)-propyl]-sulfamoyl}-thiophen-2-ylmethyl)-benzamide], the concentration for half-maximal inhibition (IC50) was determined as 188 nM.
